{"source": "BigSolDB 2.1", "data": [{"smiles": "CC1=NN(c2ccccc2)C(=O)C1", "values": [{"measurement": "solubility (mole fraction)", "setting": "in 1,4-dioxane, 288.15 K", "result": 0.027}, {"measurement": "solubility (mole fraction)", "setting": "in 1,4-dioxane, 293.15 K", "result": 0.0341}, {"measurement": "solubility (mole fraction)", "setting": "in 1,4-dioxane, 303.15 K", "result": 0.0483}, {"measurement": "solubility (mole fraction)", "setting": "in 1,4-dioxane, 313.15 K", "result": 0.0669}, {"measurement": "solubility (mole fraction)", "setting": "in 1,4-dioxane, 323.15 K", "result": 0.1}, {"measurement": "solubility (mole fraction)", "setting": "in acetone, 283.15 K", "result": 0.0167}, {"measurement": "solubility (mole fraction)", "setting": "in acetone, 293.15 K", "result": 0.0254}, {"measurement": "solubility (mole fraction)", "setting": "in acetone, 303.15 K", "result": 0.0371}, {"measurement": "solubility (mole fraction)", "setting": "in acetone, 313.15 K", "result": 0.0563}, {"measurement": "solubility (mole fraction)", "setting": "in acetone, 323.15 K", "result": 0.108}, {"measurement": "solubility (mole fraction)", "setting": "in acetonitrile, 283.15 K", "result": 0.00788}, {"measurement": "solubility (mole fraction)", "setting": "in acetonitrile, 293.15 K", "result": 0.0126}, {"measurement": "solubility (mole fraction)", "setting": "in acetonitrile, 303.15 K", "result": 0.019}, {"measurement": "solubility (mole fraction)", "setting": "in acetonitrile, 313.15 K", "result": 0.0284}, {"measurement": "solubility (mole fraction)", "setting": "in acetonitrile, 323.15 K", "result": 0.0438}, {"measurement": "solubility (mole fraction)", "setting": "in dichloromethane, 283.15 K", "result": 0.0447}, {"measurement": "solubility (mole fraction)", "setting": "in dichloromethane, 288.15 K", "result": 0.0499}, {"measurement": "solubility (mole fraction)", "setting": "in dichloromethane, 293.15 K", "result": 0.0582}, {"measurement": "solubility (mole fraction)", "setting": "in dichloromethane, 298.15 K", "result": 0.0688}, {"measurement": "solubility (mole fraction)", "setting": "in dichloromethane, 303.15 K", "result": 0.0788}, {"measurement": "solubility (mole fraction)", "setting": "in ethanol, 283.15 K", "result": 0.0176}, {"measurement": "solubility (mole fraction)", "setting": "in ethanol, 293.15 K", "result": 0.024}, {"measurement": "solubility (mole fraction)", "setting": "in ethanol, 303.15 K", "result": 0.0339}, {"measurement": "solubility (mole fraction)", "setting": "in ethanol, 313.15 K", "result": 0.0457}, {"measurement": "solubility (mole fraction)", "setting": "in ethanol, 323.15 K", "result": 0.0597}, {"measurement": "solubility (mole fraction)", "setting": "in ethyl acetate, 283.15 K", "result": 0.0131}, {"measurement": "solubility (mole fraction)", "setting": "in ethyl acetate, 293.15 K", "result": 0.0159}, {"measurement": "solubility (mole fraction)", "setting": "in ethyl acetate, 303.15 K", "result": 0.0198}, {"measurement": "solubility (mole fraction)", "setting": "in ethyl acetate, 313.15 K", "result": 0.0335}, {"measurement": "solubility (mole fraction)", "setting": "in ethyl acetate, 323.15 K", "result": 0.0545}, {"measurement": "solubility (mole fraction)", "setting": "in isobutanol, 283.15 K", "result": 0.0153}, {"measurement": "solubility (mole fraction)", "setting": "in isobutanol, 293.15 K", "result": 0.0218}, {"measurement": "solubility (mole fraction)", "setting": "in isobutanol, 303.15 K", "result": 0.0288}, {"measurement": "solubility (mole fraction)", "setting": "in isobutanol, 313.15 K", "result": 0.0398}, {"measurement": "solubility (mole fraction)", "setting": "in isobutanol, 323.15 K", "result": 0.0573}, {"measurement": "solubility (mole fraction)", "setting": "in isopropanol, 283.15 K", "result": 0.0135}, {"measurement": "solubility (mole fraction)", "setting": "in isopropanol, 293.15 K", "result": 0.0186}, {"measurement": "solubility (mole fraction)", "setting": "in isopropanol, 303.15 K", "result": 0.0268}, {"measurement": "solubility (mole fraction)", "setting": "in isopropanol, 313.15 K", "result": 0.0356}, {"measurement": "solubility (mole fraction)", "setting": "in isopropanol, 323.15 K", "result": 0.0514}, {"measurement": "solubility (mole fraction)", "setting": "in methanol, 283.15 K", "result": 0.0194}, {"measurement": "solubility (mole fraction)", "setting": "in methanol, 293.15 K", "result": 0.0278}, {"measurement": "solubility (mole fraction)", "setting": "in methanol, 303.15 K", "result": 0.0402}, {"measurement": "solubility (mole fraction)", "setting": "in methanol, 313.15 K", "result": 0.0562}, {"measurement": "solubility (mole fraction)", "setting": "in methanol, 323.15 K", "result": 0.0833}, {"measurement": "solubility (mole fraction)", "setting": "in n-butanol, 283.15 K", "result": 0.0194}, {"measurement": "solubility (mole fraction)", "setting": "in n-butanol, 293.15 K", "result": 0.0272}, {"measurement": "solubility (mole fraction)", "setting": "in n-butanol, 303.15 K", "result": 0.0372}, {"measurement": "solubility (mole fraction)", "setting": "in n-butanol, 313.15 K", "result": 0.0504}, {"measurement": "solubility (mole fraction)", "setting": "in n-butanol, 323.15 K", "result": 0.0703}, {"measurement": "solubility (mole fraction)", "setting": "in n-pentanol, 283.15 K", "result": 0.0245}, {"measurement": "solubility (mole fraction)", "setting": "in n-pentanol, 293.15 K", "result": 0.0285}, {"measurement": "solubility (mole fraction)", "setting": "in n-pentanol, 303.15 K", "result": 0.0381}, {"measurement": "solubility (mole fraction)", "setting": "in n-pentanol, 313.15 K", "result": 0.05}, {"measurement": "solubility (mole fraction)", "setting": "in n-pentanol, 323.15 K", "result": 0.069}, {"measurement": "solubility (mole fraction)", "setting": "in n-propanol, 283.15 K", "result": 0.0149}, {"measurement": "solubility (mole fraction)", "setting": "in n-propanol, 293.15 K", "result": 0.025}, {"measurement": "solubility (mole fraction)", "setting": "in n-propanol, 303.15 K", "result": 0.0344}, {"measurement": "solubility (mole fraction)", "setting": "in n-propanol, 313.15 K", "result": 0.0494}, {"measurement": "solubility (mole fraction)", "setting": "in n-propanol, 323.15 K", "result": 0.0689}, {"measurement": "solubility (mole fraction)", "setting": "in sec-butanol, 283.15 K", "result": 0.0156}, {"measurement": "solubility (mole fraction)", "setting": "in sec-butanol, 293.15 K", "result": 0.0218}, {"measurement": "solubility (mole fraction)", "setting": "in sec-butanol, 303.15 K", "result": 0.0296}, {"measurement": "solubility (mole fraction)", "setting": "in sec-butanol, 313.15 K", "result": 0.0404}, {"measurement": "solubility (mole fraction)", "setting": "in sec-butanol, 323.15 K", "result": 0.0579}, {"measurement": "solubility (mole fraction)", "setting": "in water, 283.15 K", "result": 0.000153}, {"measurement": "solubility (mole fraction)", "setting": "in water, 293.15 K", "result": 0.000163}, {"measurement": "solubility (mole fraction)", "setting": "in water, 303.15 K", "result": 0.000174}, {"measurement": "solubility (mole fraction)", "setting": "in water, 313.15 K", "result": 0.000189}, {"measurement": "solubility (mole fraction)", "setting": "in water, 323.15 K", "result": 0.00021}]}]}
